Assay results: paper PMC10108200, “Reaction Pathways for the Enzymatic Degradation of Poly(Ethylene Terephthalate): What Characterizes an Efficient PET‐Hydrolase?” (Chembiochem, 2022)

Molecular target: T1, IsP (Pseudideonella sakaiensis, UniProt A0A0K8P6T7)
T1 construct: gene ISF6_4831; heterologously expressed and purified
Assay: initial rates by RP-HPLC, Michaelis-Menten fit
Format: biochemical
Settings: 50 °C, 10 min, 0-2 mM substrate, 0.01-0.5 μM enzyme
Description: initial rates by RP-HPLC, Michaelis-Menten fit on IsP

T1 sequence (A0A0K8P6T7 28-290): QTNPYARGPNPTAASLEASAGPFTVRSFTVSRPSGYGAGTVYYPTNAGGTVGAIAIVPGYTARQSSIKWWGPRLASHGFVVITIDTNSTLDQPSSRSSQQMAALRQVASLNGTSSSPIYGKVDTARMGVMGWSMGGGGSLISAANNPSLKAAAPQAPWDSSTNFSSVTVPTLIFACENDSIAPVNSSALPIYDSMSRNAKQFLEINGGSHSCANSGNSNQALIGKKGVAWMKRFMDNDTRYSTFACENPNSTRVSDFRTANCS

| Km [µM] | Structure (SMILES) |
| --- | --- |
| 140 ± 36 | O=C(O)c1ccc(C(=O)OCCOC(=O)c2ccc(C(=O)OCCO)cc2)cc1 [TETE] |
| 58 ± 29 | O=C(O)c1ccc(C(=O)OCCOC(=O)c2ccc(C(=O)OCCOC(=O)c3ccc(C(=O)O)cc3)cc2)cc1 [TETET] |
